We go through eleven molecules from patent US20060166985A1, “Pyrrolydin-2-one derivatives as inhibitors of thrombin and factor xa” (priority 2002, published 2006).

Structures are written as SMILES. Some results are limits rather than exact numbers.

Broadly, the Ki is a dissociation constant, usually derived from enzyme kinetics or from competition with a known ligand.

This assay concerns the target human Thrombin (Homo sapiens, UniProt P00734). Nature of the assay: In vitro assay for inhibition of Thrombin (chromogenic or fluorogenic assay). As to conditions: Example 2 chromogenic assay, other Examples fluorogenic assay, read-out: thrombin inhibitory Ki. In kind it is biochemical. The protocol:
Thrombin inhibitory activity is measured by the ability to inhibit human α-thrombin in a chromogenic assay using N-p-tosyl-gly-pro-lys p-nitroanilide as the chromogenic substrate, or in a fluorogenic assay using Rhodamine 110, bis-(CBZ-L-valyl-L-prolyl-L-arginine amide) as the fluorogenic substrate.
The compound was diluted from a 10 mM stock solution in dimethylsulfoxide at appropriate concentrations. Assay was performed at room temperature using buffer consisting of: 50 mM HEPES, 150 mM NaCl, 5 mM CaCl2, 0.1% PEG, pH 7.4. containing human Thrombin (final conc. of 1 nM). Compound and enzyme were preincubated for 15 min prior to addition of the substrate (final conc. of 100 μM). The reaction was stopped after 30 min with the addition of soybean trypsin inhibitor or H-D-PHE-PRO-ARG-Chloromethylketone. […] To obtain IC50 values the data were analysed using ActivityBase® and XLfit®.
Compounds were diluted from a 10 mM stock solution in dimethylsulfoxide at appropriate concentrations. Assay was performed at room temperature using buffer consisting of: 50 mM HEPES, 150 mM NaCl, 5 mM CaCl2, 0.1% PEG, pH 7.4. containing human Thrombin (final conc. Of 0.2 nM). Compound and enzyme were preincubated for 15 min prior to addition of the substrate (final conc. of 10 μM). The reaction was stopped after 3 hrs with the addition of H-D-PHE-PRO-ARG-Chloromethylketone. […] To obtain IC50 values the data were analysed using ActivityBase® and XLfit®.
`CC[C@H](C)[C@@H](C(=O)N1CCOCC1)N1CC[C@H](NS(=O)(=O)CC(O)c2ccc(Cl)cc2)C1=O` (stereo partly drawn) [Example 53, 2-(4-chlorophenyl)-2-hydroxy-N-{(3S)-1-[(1S,2S)-2-methyl-1-(4-morpholinylcarbonyl)butyl]-2-oxo-3-pyrrolidinyl}ethanesulfonamide]: the Ki was < 100 nM.
Take `CC(CS(=O)(=O)N[C@H]1CCN([C@@H](C)C(=O)N2CCOCC2)C1=O)c1ccc(Cl)s1` (stereo partly drawn) [Example 54, 2-(5-chloro-2-thienyl)-N-{(3S)-1-[(1S)-1-methyl-2-(4-morpholinyl)-2-oxoethyl]-2-oxo-3-pyrrolidinyl}-1-propanesulfonamide]: the Ki was < 100 nM.
The result for `CC[C@H](C)[C@@H](C(=O)N1CCOCC1)N1CC[C@H](NS(=O)(=O)CC(C)c2ccc(Cl)s2)C1=O` (stereo partly drawn) [Example 57, 2-(5-chloro-2-thienyl)-N-{(3S)-1-[(1S,2S)-2-methyl-1-(4-morpholinylcarbonyl)butyl]-2-oxo-3-pyrrolidinyl}-1-propanesulfonamide] reads < 25 nM; that for `COC[C@@H](C(=O)N1CCOCC1)N1CC[C@H](NS(=O)(=O)CC(C)c2ccc(Cl)s2)C1=O` (stereo partly drawn) [Example 58, 2-(5-chloro-2-thienyl)-N-{(3S)-1-[(1S)-1-[(methyloxy)methyl]-2-(4-morpholinyl)-2-oxoethyl]-2-oxo-3-pyrrolidinyl}-1-propanesulfonamide], < 100 nM.
With `CCOC[C@@H](C(=O)N1CCOCC1)N1CC[C@H](NS(=O)(=O)CC(C)c2ccc(Cl)s2)C1=O` (stereo partly drawn) [Example 59, 2-(5-chloro-2-thienyl)-N-{(3S)-1-[(1S)-1-[(ethyloxy)methyl]-2-(4-morpholinyl)-2-oxoethyl]-2-oxo-3-pyrrolidinyl}-1-propanesulfonamide], the inhibition constant Ki was < 25 nM.
For `Cc1noc(C[C@@H](C(=O)N2CCOCC2)N2CC[C@H](NS(=O)(=O)CC(C)c3ccc(Cl)s3)C2=O)n1` (stereo partly drawn) [Example 60, 2-(5-chloro-2-thienyl)-N-{(3S)-1-[(1S)-1-[(3-methyl-1,2,4-oxadiazol-5-yl)methyl]-2-(4-morpholinyl)-2-oxoethyl]-2-oxo-3-pyrrolidinyl}-1-propanesulfonamide], the Ki was < 50 nM.
The result for `C[C@@H](C(=O)N1CCOCC1)N1CC[C@H](NS(=O)(=O)CC2CCc3cc(Cl)ccc32)C1=O` (stereo partly drawn) [Example 61, 1-(5-chloro-2,3-dihydro-1H-inden-1-yl)-N-{(3S)-1-[(1S)-1-methyl-2-(4-morpholinyl)-2-oxoethyl]-2-oxo-3-pyrrolidinyl}methanesulfonamide] reads < 100 nM; that for `COC[C@@H](C(=O)N1CCOCC1)N1CC[C@H](NS(=O)(=O)CC2CCc3cc(Cl)ccc32)C1=O` (stereo partly drawn) [Example 62, 1-(5-chloro-2,3-dihydro-1H-inden-1-yl)-N-{(3S)-1-[(1S)-1-[(methyloxy)methyl]-2-(4-morpholinyl)-2-oxoethyl]-2-oxo-3-pyrrolidinyl}methanesulfonamide], < 200 nM.
Turning to `CC[C@H](C)[C@@H](C(=O)N1CCOCC1)N1CC[C@H](NS(=O)(=O)CC2CCc3cc(Cl)ccc32)C1=O` (stereo partly drawn) [Example 63, 1-(5-chloro-2,3-dihydro-1H-inden-1-yl)-N-{(3S)-1-[(1S,2S)-2-methyl-1-(4-morpholinylcarbonyl)butyl]-2-oxo-3-pyrrolidinyl}methanesulfonamide], the Ki was < 50 nM.
As for `C[C@@H](C(=O)N1CCOCC1)N1CC[C@H](NS(=O)(=O)CC2COc3cc(Cl)ccc32)C1=O` (stereo partly drawn) [Example 64, 1-(6-chloro-2,3-dihydro-1-benzofuran-3-yl)-N-{(3S)-1-[(1S)-1-methyl-2-(4-morpholinyl)-2-oxoethyl]-2-oxo-3-pyrrolidinyl}methanesulfonamide], the Ki was < 100 nM.
For `COC[C@@H](C(=O)N1CCOCC1)N1CC[C@H](NS(=O)(=O)CC2COc3cc(Cl)ccc32)C1=O` (stereo partly drawn) [Example 65, 1-(6-chloro-2,3-dihydro-1-benzofuran-3-yl)-N-{(3S)-1-[(1S)-1-[(methyloxy)methyl]-2-(4-morpholinyl)-2-oxoethyl]-2-oxo-3-pyrrolidinyl}methanesulfonamide], the Ki was < 100 nM.
